Reference: ChEMBL document CHEMBL3507680, “University of Dundee, Gates Library screen for HepG2 cell viability”

Experiment: Human HepG2 cell viability assay in 384 well format
Type: toxicity, cell-based
Set-up: dose 125 nL, time 70.5 hour; cytotoxicity at 70.5 h: concentration not given beside the values
Settings: HepG2 cells, read-out: Inhibition
Work on `Cc1ccc(CN2CCOC3(COCCN(CCN(C)C)C3)C2)o1` (stereo unspecified) yielded a cytotoxicity at 70.5 h of -7.86%. Molecule `COCCN1CCN(Cc2c(C)noc2C)Cc2ccc(C)nc21` has a cytotoxicity at 70.5 h of -1.53%. For `COCCn1cnnc1Cn1ccnc1-c1ccccc1C`, the cytotoxicity at 70.5 h was 1.73%. Molecule `Cc1nnc(SCC(=O)c2cc3c(cc2Cl)NC(=O)C3)s1` has a cytotoxicity at 70.5 h of -30.2%. In the case of `FC(F)(F)C1CN(c2nc(-c3ccccc3)no2)CCO1` (stereo unspecified), the cytotoxicity at 70.5 h is reported as -14.1%. `CCc1nnc2n1CCN(C(=O)c1ccc(-c3ccco3)[nH]c1=O)C2` showed a cytotoxicity at 70.5 h of -6.59%. With `Cc1ccc(NC(=O)N2CCOC(C(N)=O)C2)cc1C(F)(F)F` (stereo unspecified) the cytotoxicity at 70.5 h was -4.03%. With `CC(C)[C@@H](C)NC(=O)N1CCn2nc(C(=O)NCCN(C)C)cc2C1` the cytotoxicity at 70.5 h was -0.748%. With `COc1ccc2cccc(CC(=O)NCCCc3n[nH]c(C)n3)c2c1` the cytotoxicity at 70.5 h was 4.93%. With `Cc1csc(CN2CC[C@H]3C[C@H](c4ccncn4)O[C@@H]3C2)n1` the cytotoxicity at 70.5 h was -2.15%. In the case of `O=C1CN(Cc2nnc(-c3ccc(Cl)cc3)o2)CCN1`, the cytotoxicity at 70.5 h is reported as -9.87%. In the case of `O=C(NCCC(=O)N1CCCC1)c1ccc(SCc2cccnc2)cc1`, the cytotoxicity at 70.5 h is reported as -8.9%. In the case of `Cn1cccc1C(=O)N1CCCC1c1ccc(CN2CCOCC2)cn1` (stereo unspecified), the cytotoxicity at 70.5 h is reported as -1.35%. `Cc1cc(C(=O)N2CCn3cc(CN4CCOCC4)nc3C2)no1` showed a cytotoxicity at 70.5 h of -7.09%. Work on `O=C(CN1CCNC1=O)NCc1ccc2sccc2c1` yielded a cytotoxicity at 70.5 h of -9.13%. In the case of `CNc1nc(C2CCCCN2C(=O)C(C)(C)OC)nc2c1CN(C)CC2` (stereo unspecified), the cytotoxicity at 70.5 h is reported as -7.36%. `O=C1N(CC2CCC2)CCCC12CCN(S(=O)(=O)c1cccnc1)C2` (stereo unspecified) gave a cytotoxicity at 70.5 h of -4.23%. `O=C(CSC1CCc2ccccc2NC1=O)NCc1cccs1` (stereo unspecified) showed a cytotoxicity at 70.5 h of -13.4%. With `CN1CCC(N2CC[C@H](c3nc4ccc(C(F)(F)F)cc4[nH]3)C2)CC1` the cytotoxicity at 70.5 h was -13.2%. Molecule `COc1ccc(Cl)cc1NCCC(=O)NCCNc1cnccn1` has a cytotoxicity at 70.5 h of 3.74%. Molecule `Cc1cc(NCc2noc(C(C)C)n2)nc(-c2ccccc2)n1` has a cytotoxicity at 70.5 h of 12.1%. `O=C(CN(CC(O)c1ccc(F)cc1)C1CC1)NC(C1CC1)C1CC1` (stereo unspecified) gave a cytotoxicity at 70.5 h of -90.6%. Molecule `Cn1cccc1C(O)CNC(=O)c1ccc(C(F)(F)F)cc1` (stereo unspecified) has a cytotoxicity at 70.5 h of -20.6%. In the case of `c1[nH]c(CC2CCCC2)nc1CN1CCCC2(CCOC2)C1` (stereo unspecified), the cytotoxicity at 70.5 h is reported as -8.93%. With `Cc1ccc(N2Cc3cnn(C)c3C(COCC3CC3)C2)nn1` (stereo unspecified) the cytotoxicity at 70.5 h was -4.86%. Work on `O=C(O)c1ccn(COc2c(Cl)cccc2Cl)n1` yielded a cytotoxicity at 70.5 h of -7.49%. Molecule `O=C(c1cnc(-c2cnccn2)s1)N1CCCC(n2cccn2)C1` (stereo unspecified) has a cytotoxicity at 70.5 h of -6.04%. `O=C(NCc1cccnc1)NCC(O)c1ccccc1C(F)(F)F` (stereo unspecified) gave a cytotoxicity at 70.5 h of -9.13%. For `c1ccc(-c2nnc3sc(CCN4CCCCCC4)nn23)cc1`, the cytotoxicity at 70.5 h was -11.1%. Molecule `CC(c1cccc(-c2ccc(C(=O)O)cc2Cl)c1)N(C)C` (stereo unspecified) has a cytotoxicity at 70.5 h of -1.21%. For `COCCOC(=O)N1C[C@H]2CC[C@@H]1CN(C1Cc3ccccc3C1)C2`, the cytotoxicity at 70.5 h was -3.17%. `O=C(c1c2c(N3CCOCC3)ncnc2n2ccccc12)N1CCCC1` gave a cytotoxicity at 70.5 h of -3.03%. For `CCc1nccn1C1CCCN(C(=O)C2=NN(C)C(=O)CC2)C1` (stereo unspecified), the cytotoxicity at 70.5 h was -8.58%. `Cc1ccc(-c2ccnc3cc(CC(=O)N4CCN(C)CC4)nn23)cc1` gave a cytotoxicity at 70.5 h of 0.106%. In the case of `Cc1csc(N2CCCN(Cc3noc(C)n3)CC2)n1`, the cytotoxicity at 70.5 h is reported as -1.5%. In the case of `COCC(O)CN1CC(C)(C)CN(C(=O)CCc2ccccc2)CC1=O` (stereo unspecified), the cytotoxicity at 70.5 h is reported as 0.943%. For `CS(=O)(=O)N1CCN2C(=O)N(C3CCOCC3)C[C@H]2C1`, the cytotoxicity at 70.5 h was 12.9%. Work on `COCC1CN(Cc2cc(C)on2)Cc2cnn(C)c21` (stereo unspecified) yielded a cytotoxicity at 70.5 h of -3.91%. `O=C(NCCN1CCCC1)c1ccc2c(-c3nccs3)noc2c1` gave a cytotoxicity at 70.5 h of -6.42%. `Cc1cc(CN2CCN(c3ccc4nncn4n3)C(C)C2)no1` (stereo unspecified) gave a cytotoxicity at 70.5 h of 5.04%. Work on `CC(C)C(NC(=O)NCC1CC1)c1nnc2n1CCC2` (stereo unspecified) yielded a cytotoxicity at 70.5 h of 3.11%. For `CCOc1cc(/C=C/c2ncc(C(=O)O)s2)cc(Cl)c1OC`, the cytotoxicity at 70.5 h was 9.41%. In the case of `COc1cccc(CCNC(=O)NC(C)C)c1O`, the cytotoxicity at 70.5 h is reported as 9.97%. For `O=C(c1ccsc1)N1C[C@@H]2CCN(C(=O)c3cscn3)[C@@H]2C1`, the cytotoxicity at 70.5 h was -6.91%. In the case of `CCSc1cccc(NCc2cccnc2)c1`, the cytotoxicity at 70.5 h is reported as -16.6%. `CCC[C@@H]1CN(Cc2cc(C#N)n(C)c2C)C[C@H]1NS(C)(=O)=O` gave a cytotoxicity at 70.5 h of -6.42%. Work on `CCn1c(C2CCCN(Cc3nccn3CCOC)C2)nn(C)c1=O` (stereo unspecified) yielded a cytotoxicity at 70.5 h of -11.9%. Work on `Cc1cccnc1NC(=O)c1ccc(F)c(S(=O)(=O)NC2CC2)c1` yielded a cytotoxicity at 70.5 h of -2.44%. Work on `Cc1ccc(S(=O)(=O)NC(C)(C)CN)c(F)c1` yielded a cytotoxicity at 70.5 h of -1.04%. `CN(C)C(=O)N1CCCC2(CCN(Cc3ccncc3)C2)C1` (stereo unspecified) showed a cytotoxicity at 70.5 h of -7.12%. In the case of `CN(C)C[C@]12COC[C@H]1CN(Cc1ccc3c(c1)OCO3)C2`, the cytotoxicity at 70.5 h is reported as -2.79%. In the case of `NC(=O)C1CCN(c2nc3nccc(-c4ccccn4)c3c(=O)[nH]2)CC1`, the cytotoxicity at 70.5 h is reported as -3.55%. In the case of `N#Cc1ccc(N2CCC(OC3CCOCC3)CC2)cc1Cl`, the cytotoxicity at 70.5 h is reported as 1.95%. For `c1ccc(OCc2nnc3n2CCN(CC2CCOCC2)C3)nc1`, the cytotoxicity at 70.5 h was -0.459%. `CN(C)[C@@H]1CO[C@H](CNC(=O)c2cccs2)[C@H]1O` gave a cytotoxicity at 70.5 h of -8.01%. Work on `CCOC1CCCN(C(=O)c2[nH]nc(C3CC3)c2Br)C1` (stereo unspecified) yielded a cytotoxicity at 70.5 h of -6.37%. `COc1cc(N2C[C@H]3OCC[C@H]3[C@H](C(=O)NC3CC3)C2)ncn1` showed a cytotoxicity at 70.5 h of -4.39%. For `Cc1ccc(N2CCN(C(=O)CCC(F)(F)F)C(C)C2)cc1` (stereo unspecified), the cytotoxicity at 70.5 h was -18.6%. `Cc1cccc(C(=O)N2CCc3c(CN(C)C)nn(C)c3C2)n1` showed a cytotoxicity at 70.5 h of -14.3%. Molecule `Oc1nc(N2CCCC2)nc2nccc(-c3ccccn3)c12` has a cytotoxicity at 70.5 h of -22.4%. With `CNS(=O)(=O)c1cccc(CNC(=O)c2cc(C)no2)c1` the cytotoxicity at 70.5 h was 15.5%. Molecule `O=C(CN1C=Nc2ccccc2S1(=O)=O)NCCc1cccs1` has a cytotoxicity at 70.5 h of 1.55%. With `CCOCCN1Cc2cnn(C)c2C(COCC)C1` (stereo unspecified) the cytotoxicity at 70.5 h was 8.6%. In the case of `c1ccc(-c2nc(CN3CCn4c(nnc4C4CC4)C3)cs2)cc1`, the cytotoxicity at 70.5 h is reported as -11.8%. `C[C@@H](NC(=O)c1cccnc1)c1onc(-c2ccccc2)c1C(=O)O` showed a cytotoxicity at 70.5 h of -4.96%. Molecule `CN(CCN1CCOC1=O)CC(=O)Nc1ccc(Cl)c(C(F)(F)F)c1` has a cytotoxicity at 70.5 h of -22%. In the case of `Cc1nc(-c2cccc(C(=O)N(C)C)c2)cs1`, the cytotoxicity at 70.5 h is reported as 1.56%. For `CN(C(=O)CNc1ccc(C#N)cc1)C1CCCCC1`, the cytotoxicity at 70.5 h was -3.87%. In the case of `O=C(C1CCN(c2snc3ccccc23)CC1)N1CCCCCC1`, the cytotoxicity at 70.5 h is reported as 28.1%. Molecule `Cc1nc(C2CCN(C(=O)COC(C)C)CC2)cc(N2CCOCC2)n1` has a cytotoxicity at 70.5 h of -8.64%. Molecule `Cc1cc(N2CCN(C(=O)c3cn(C)c4ccccc34)CC2)nc(C)n1` has a cytotoxicity at 70.5 h of 20.3%. With `CC(C)c1cc(C(=O)N2CCc3ccccc3C2C(=O)O)nn1C` (stereo unspecified) the cytotoxicity at 70.5 h was -1.42%. For `CN(C)CC1CSCCCN1C(=O)Nc1ccc(C(C)(C)C)cc1` (stereo unspecified), the cytotoxicity at 70.5 h was 5.94%. `CC(C)N1CCC(N2CCN(C3CCCCC3)CC2CCO)CC1` (stereo unspecified) showed a cytotoxicity at 70.5 h of -10.5%. `Cc1nc(CN2CCC(N(C)Cc3nnc(C4CC4)n3C)C2)oc1C` (stereo unspecified) showed a cytotoxicity at 70.5 h of 10.4%. In the case of `CC(C)c1nnc(NC(=O)N2CCCC2c2ccncc2)s1` (stereo unspecified), the cytotoxicity at 70.5 h is reported as 20%. For `Cc1cccc(C2(O)CCN(C(=O)c3ccc(N(C)C)cc3)CC2)c1C`, the cytotoxicity at 70.5 h was 9.92%. With `NC(=O)c1cn(CC2CC2)c(C2CC2)n1` the cytotoxicity at 70.5 h was -7.32%. Work on `CCC(C)(C)NC(=O)c1ncn2c1CN(C)S(=O)(=O)c1ccccc1-2` yielded a cytotoxicity at 70.5 h of 20.8%. Molecule `COc1cc2nc3n(c(=O)c2cc1OC)CCN(C(C)=O)CC3` has a cytotoxicity at 70.5 h of -13.7%. For `CCn1ccnc1CN1CCN(C(C)C(=O)N2CCCCCC2)CC1` (stereo unspecified), the cytotoxicity at 70.5 h was -1.03%.
